# Tests used:
# DIPGX29 [1] = H3.3 K27M diffuse intrinsic pontine glioma line; experiment: EC50 (inflection of fitted growth-inhibition curve) (log10 M)
# In short: (§1)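 Patient-derived pHGG/DIPG cell lines and astrocyte controls were plated in 384-well plates coated with 1% Geltrex and dosed by pin tool with a 10-point threefold dilution series (mean top concentration 35 μM), in triplicate. Cells were exposed for 7 days (3 days for iAstro) at 37 °C and 5% CO2. CellTiter-Glo luminescence was log2-transformed, normalised per plate to % activity between negative (solvent) and positive control wells, and pooled. EC50 and maximal response (yFin) were taken from whichever three- or four-parameter log-logistic fit had the lowest AICc.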
# DIPGX37 [2] = H3.3 K27M diffuse intrinsic pontine glioma line; experiment: as above
# In short: as §1
# DIPGX9 [3] = diffuse intrinsic pontine glioma line; experiment: as above
# In short: as §1
# HABS [4] = astrocyte control; experiment: as above
# In short: as §1
# HGGX2 [5] = paediatric high-grade glioma line; experiment: as above
# In short: as §1
# HGGX39 [6] = paediatric high-grade glioma line; experiment: as above
# In short: as §1
# HGGX42 [7] = H3.3 G34R paediatric high-grade glioma line; experiment: as above
# In short: as §1
# HGGX6 [8] = H3.3 G34R paediatric high-grade glioma line; experiment: as above
# In short: as §1
# SUDIPGIV [9] = diffuse intrinsic pontine glioma line; experiment: as above
# In short: as §1
# SUDIPGXIX [10] = diffuse intrinsic pontine glioma line; experiment: as above
# In short: as §1
# SUDIPGXVII [11] = diffuse intrinsic pontine glioma line; experiment: as above
# In short: as §1
# SUDIPGXXI [12] = diffuse intrinsic pontine glioma line; experiment: as above
# In short: as §1
# iAstro [13] = astrocyte control; experiment: as above
# In short: as §1
# DIPGX29 [14] = experiment: maximal growth inhibition (yFin) relative to DMSO / staurosporine; higher = more efficacious
# In short: as §1
# DIPGX37 [15] = experiment: as above
# In short: as §1
# DIPGX9 [16] = experiment: as above
# In short: as §1
# HABS [17] = experiment: as above
# In short: as §1
# HGGX2 [18] = experiment: as above
# In short: as §1
# HGGX39 [19] = experiment: as above
# In short: as §1
# HGGX42 [20] = experiment: as above
# In short: as §1
# HGGX6 [21] = experiment: as above
# In short: as §1
# SUDIPGIV [22] = experiment: as above
# In short: as §1
# SUDIPGXIX [23] = experiment: as above
# In short: as §1
# SUDIPGXVII [24] = experiment: as above
# In short: as §1
# SUDIPGXXI [25] = experiment: as above
# In short: as §1
# iAstro [26] = experiment: as above
# In short: as §1
# DIPGX29 [27] = experiment: area under dose-response curve of % growth inhibition (log2 RLU vs DMSO / staurosporine), 1e-11 to 1e-4 M (% x log10 M); higher = more growth inhibition
# In short: (§2)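 Patient-derived pHGG/DIPG cell lines and astrocyte controls were grown on 1% Geltrex-coated 384-well plates and exposed to a 10-point threefold dilution series (mean top concentration 35 μM), in triplicate. Exposure was 7 days (iAstro 3 days) at 37 °C, 5% CO2. CellTiter-Glo luminescence was log2-transformed and normalised per plate to % activity between solvent and positive controls. Area under the curve was taken by trapezoid rule from the fitted log-logistic curve, or from a smoothing spline when the sigmoid fit failed.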
# DIPGX37 [28] = experiment: as above
# In short: as §2
# DIPGX7 = H3.3 K27M diffuse intrinsic pontine glioma line; experiment: as above
# In short: as §2
# DIPGX9 [29] = experiment: as above
# In short: as §2
# HABS [30] = experiment: as above
# In short: as §2
# HGGX2 [31] = experiment: as above
# In short: as §2
# HGGX39 [32] = experiment: as above
# In short: as §2
# HGGX42 [33] = experiment: as above
# In short: as §2
# HGGX6 [34] = experiment: as above
# In short: as §2
# SUDIPGIV [35] = experiment: as above
# In short: as §2
# SUDIPGVI = diffuse intrinsic pontine glioma line; experiment: as above
# In short: as §2
# SUDIPGXIII = diffuse intrinsic pontine glioma line; experiment: as above
# In short: as §2
# SUDIPGXIX [36] = experiment: as above
# In short: as §2
# SUDIPGXVII [37] = experiment: as above
# In short: as §2
# SUDIPGXXI [38] = experiment: as above
# In short: as §2
# iAstro [39] = experiment: as above
# In short: as §2
compound,measurement,setting,value
NC(=O)Nc1sc(-c2ccc(F)cc2)cc1C(N)=O [TPCA-1],EC50 (log10 M),DIPGX29 [1],-4.75
same,EC50 (log10 M),DIPGX37 [2],-4.8
same,EC50 (log10 M),DIPGX9 [3],-4.8
same,EC50 (log10 M),HABS [4],-4.95
same,EC50 (log10 M),HGGX2 [5],-4.67
same,EC50 (log10 M),HGGX39 [6],-4.79
same,EC50 (log10 M),HGGX42 [7],-5.23
same,EC50 (log10 M),HGGX6 [8],-5.19
same,EC50 (log10 M),SUDIPGIV [9],-4.55
same,EC50 (log10 M),SUDIPGXIX [10],-4.66
same,EC50 (log10 M),SUDIPGXVII [11],-4.74
same,EC50 (log10 M),SUDIPGXXI [12],-4.81
same,EC50 (log10 M),iAstro [13],-4.76
same,maximal growth inhibition,DIPGX29 [14],35.9%
same,maximal growth inhibition,DIPGX37 [15],38.5%
same,maximal growth inhibition,DIPGX9 [16],36.9%
same,maximal growth inhibition,HABS [17],33.8%
same,maximal growth inhibition,HGGX2 [18],36.3%
same,maximal growth inhibition,HGGX39 [19],27.7%
same,maximal growth inhibition,HGGX42 [20],24.8%
same,maximal growth inhibition,HGGX6 [21],22.5%
same,maximal growth inhibition,SUDIPGIV [22],21.9%
same,maximal growth inhibition,SUDIPGXIX [23],58.5%
same,maximal growth inhibition,SUDIPGXVII [24],20.7%
same,maximal growth inhibition,SUDIPGXXI [25],122%
same,maximal growth inhibition,iAstro [26],24.4%
same,area under dose-response curve,DIPGX29 [27],26.8
same,area under dose-response curve,DIPGX37 [28],30.6
same,area under dose-response curve,DIPGX7,11.3
same,area under dose-response curve,DIPGX9 [29],29.4
same,area under dose-response curve,HABS [30],32.4
same,area under dose-response curve,HGGX2 [31],23.3
same,area under dose-response curve,HGGX39 [32],21.9
same,area under dose-response curve,HGGX42 [33],30.8
same,area under dose-response curve,HGGX6 [34],26.9
same,area under dose-response curve,SUDIPGIV [35],12
same,area under dose-response curve,SUDIPGVI,6.26
same,area under dose-response curve,SUDIPGXIII,3.37
same,area under dose-response curve,SUDIPGXIX [36],39.2
same,area under dose-response curve,SUDIPGXVII [37],15.2
same,area under dose-response curve,SUDIPGXXI [38],99.3
same,area under dose-response curve,iAstro [39],18.2
CC1=C(/C=C/C(C)=C/C=C/C(C)=C/C(=O)O)C(C)(C)CCC1 [TRETINON],EC50 (log10 M),HGGX2 [5],-6.92
same,EC50 (log10 M),SUDIPGXXI [12],-7.13
same,maximal growth inhibition,HGGX2 [18],24.3%
same,maximal growth inhibition,SUDIPGXXI [25],94.3%
same,area under dose-response curve,DIPGX29 [27],40.4
same,area under dose-response curve,DIPGX37 [28],46.7
same,area under dose-response curve,DIPGX7,16.1
same,area under dose-response curve,DIPGX9 [29],97.5
same,area under dose-response curve,HABS [30],0
same,area under dose-response curve,HGGX2 [31],71.1
same,area under dose-response curve,HGGX39 [32],42.5
same,area under dose-response curve,HGGX42 [33],28.5
same,area under dose-response curve,HGGX6 [34],27.5
same,area under dose-response curve,SUDIPGIV [35],44.1
same,area under dose-response curve,SUDIPGVI,22
same,area under dose-response curve,SUDIPGXIII,0
same,area under dose-response curve,SUDIPGXIX [36],14.9
same,area under dose-response curve,SUDIPGXVII [37],19.9
same,area under dose-response curve,SUDIPGXXI [38],296
same,area under dose-response curve,iAstro [39],14.6
CN1CCc2c(c3ccccc3n2Cc2ccc(C(=O)NO)cc2)C1 [TUBASTATIN A],EC50 (log10 M),DIPGX9 [3],-4.76
same,EC50 (log10 M),SUDIPGIV [9],-4.8
same,EC50 (log10 M),SUDIPGXXI [12],-4.83
same,EC50 (log10 M),iAstro [13],-4.7
same,maximal growth inhibition,DIPGX9 [16],29.3%
same,maximal growth inhibition,SUDIPGIV [22],30.1%
same,maximal growth inhibition,SUDIPGXXI [25],99.5%
same,maximal growth inhibition,iAstro [26],54%
same,area under dose-response curve,DIPGX29 [27],16.3
same,area under dose-response curve,DIPGX37 [28],24.4
same,area under dose-response curve,DIPGX7,5.69
same,area under dose-response curve,DIPGX9 [29],32.9
same,area under dose-response curve,HABS [30],14.5
same,area under dose-response curve,HGGX2 [31],21.2
same,area under dose-response curve,HGGX39 [32],24.6
same,area under dose-response curve,HGGX42 [33],9.08
same,area under dose-response curve,HGGX6 [34],6.92
same,area under dose-response curve,SUDIPGIV [35],24.1
same,area under dose-response curve,SUDIPGVI,0
same,area under dose-response curve,SUDIPGXIII,6.63
same,area under dose-response curve,SUDIPGXIX [36],24.1
same,area under dose-response curve,SUDIPGXVII [37],17.2
same,area under dose-response curve,SUDIPGXXI [38],82.4
same,area under dose-response curve,iAstro [39],37.8
